{
  "source": "patent US5650442A",
  "about": "(priority 1994, dated 1997)",
  "key": {"[1]": {"tested_on": "Chinese hamster V79 lung fibroblasts", "assay": "Cytotoxicity of the agents alone to V79 cells, clonogenic assay", "conditions": "no radiation", "description": "(§1) Chinese hamster V79 lung fibroblasts were cultured in F12 medium supplemented with 10% fetal calf serum and antibiotics. […] The assay system was specifically designed to evaluate radiation sensitivity of cells exposed to radiation under both aerobic and hypoxic conditions (Mitchell et al., Radiat. Res., 96, 422-428 (1983); Russo et al., Radiat. Res., 103, 232-239 (1985); and DeGraff et al., Int. J. Radiat. Oncol. Biol. Phys., 16, 1021-1024 (1989)).\n(§2) When cultured cells were exposed to DEA/NO in subsequent examples, DEA/NO in F12 medium with 10 mM HEPES buffer, pH 7.0, was used. […] Control cells in subsequent examples were exposed to 0.02N NaOH, instead of DEA/NO.\nRadiation survival curves for V79 cells exposed to varying concentrations of DEA/NO and various DEA/NO decomposition products under hypoxic conditions (metabolic hypoxia induction) are shown in FIG. 1A, which is a graph of the surviving fraction versus dose (Gy). Lines in FIG. 1A represent control (.circle-solid.) and 0.1 mM (Δ), 0.5 mM (.largecircle.), 1.0 mM (.quadrature.), and 2.0 mM (.box-solid.) DEA/NO. Survival curves were corrected for drug cytotoxicity as appropriate.\nDEA/NO (2.0 mM) was allowed to decompose to liberate NO in medium maintained at 37° C. overnight in a flask open to the air for use as an additional control. The medium containing the DEA/NO decomposition products was then used to evaluate possible effects on radiosensitization."}, "[2]": {"tested_on": "Chinese hamster V79 lung fibroblasts", "assay": "Radiation survival of hypoxic V79 cells (metabolism-mediated oxygen depletion), clonogenic assay, SER", "type": "cell-based", "conditions": "hypoxic; for SER: 1% surviving fraction level", "description": "as §1, §2\nThe induction of hypoxia in dense cell suspensions by metabolism-mediated oxygen depletion was carried out as described by Mitchell et al. (supra) and Phillips et al. (Int. J. Radiat. Oncol. Biol. Phys., 12, 1627-1635 (1986)). Briefly, stock cultures of exponentially growing Chinese hamster V79 lung fibroblasts in 850 cm^2 roller bottles were trypsinized, rinsed with medium, and counted. Samples of 10^8 cells were then placed in 15 ml centrifuge tubes, centrifuged at 1,000 rpm for 5 min at 25° C., and rinsed once with medium or medium containing DEA/NO (final concentrations ranging from 0.1-2.0 mM), nitrite, diethylamine, or DEA/NO that had been allowed to decompose in full medium overnight at 37° C.\nThe cell suspension was taken up into a 3 ml glass syringe with a 18 gauge spinal needle. Air bubbles were removed, and a 25 gauge needle was fitted onto the syringe. The syringe was rotated by hand at room temperature for 20 min to allow for cellular metabolic oxygen consumption. The syringe was then placed in a lucite block and irradiated. After a given dose of radiation, 1-3 drops of cell suspension were discarded, and 1-2 drops were collected in tubes containing drug-free medium. In this manner an entire hypoxic survival curve for a given treatment condition can be obtained from a single syringe.\nHypoxic Chinese hamster V79 lung fibroblasts of Example 2 were irradiated at room temperature with 4 MeV photons from a linear accelerator at a dose rate of 1.5 Gy/min. Full electron equilibrium was ensured for all irradiations.\nFollowing irradiation, the various cell suspensions were pipetted, counted, diluted, and plated for macroscopic colony formation. Each dose determination was plated in triplicate and experiments were repeated a minimum of two times. Plates were incubated for seven days, after which colonies were fixed with methanol/acetic acid (3:1), stained with crystal violet, and counted. Colonies containing >50 cells were scored and graphed as FIGS. 1-3. Error bars in the graphs represent the standard deviation of the mean and are shown when larger than the symbol used to designate a data point. Survival curve data were fitted using a linear quadratic model of Albright (Radiat. Res., 112, 331-340 (1987)), and the survival curves shown in the figures represent the best fit curves for the experimental data points. Sensitizer enhancement ratios (SER) were calculated by dividing the radiation dose for control hypoxic conditions by the radiation dose for various agents under hypoxic conditions at the 1% surviving fraction level.\nRadiation survival curves for V79 cells exposed to varying concentrations of DEA/NO and various DEA/NO decomposition products under hypoxic conditions (metabolic hypoxia induction) are shown in FIG. 1A, which is a graph of the surviving fraction versus dose (Gy)."}, "[3]": {"tested_on": "C3H mice", "assay": "Protection of mice from whole body irradiation", "type": "in vivo", "conditions": "for Percent survival of mice at 30 days: 1100 cGy", "source_text": "Female C3H mice were obtained from the Frederick Cancer Research Center--Animal Production in Frederick, Md. C3H mice have been used in whole body irradiation studies since 1948 (Patt, et al., Science, 110, 213-214 (1949)) and are considered to serve as good models for predicting the effects of radiation in humans.\nC3H mice were received at six weeks of age and were housed five per cage in climate-controlled, circadian rhythm-adjusted rooms and allowed food and water ad libitum. The animals were 60-80 days old at the time of radiation. A total of 10-15 mice were used per radiation dose. Mice were weighed in groups of five. The weights of each group ranged from 110 grams to 135 grams or an average weight of 22-27 grams per mouse.\nIn all experiments drugs and diluent (in control mice) were injected intraperitoneally into mice in volumes equivalent to 1% of each animal's weight (0.22 to 0.27 ml). Groups of 5-10 mice were placed in round (30.5 cm diameter and 10.5 cm height) Plexiglas containers with holes for ventilation for irradiation. The irradiator was calibrated with thermoluminescent dosimetry chips planted in phantom mice, and the radiation dose was determined according to previously described methodology (Cameron et al., \"Thermoluminescent Dosimetry\" (Univ. of Wisconsin Press, Madison, Wis., 1968)). The dose rate used was 1 Gy/min. Total time of irradiation varied as a function of the dose delivered. Immediately after irradiation, the mice were separated into groups of five and returned to climate-controlled cages for observation. The mice were assessed daily for survival.\nThe results are shown in FIG. 7, which is a graph of percent surviving versus days after irradiation with 11 Gy for control mice (.box-solid., n=10), which were injected with saline, mice treated with DEA/NO 10 minutes prior to irradiation (.largecircle., n=15), and mice treated with DEA/NO 30 minutes prior to irradiation (.circle-solid., n=15)."}},
  "data": [
    {"smiles": "CCN(CC)/[N+]([O-])=N/[O-].[Na+]", "note": "[DEA/NO]", "values": [
      {"measurement": "cytotoxicity of treatment alone", "setting": "[1]; 2 mM", "result": "minimal cytotoxicity"},
      {"measurement": "cytotoxicity of treatment alone", "setting": "[1]; 0.1-1.0 mM", "result": "not cytotoxic"},
      {"measurement": "extent of radiosensitization", "setting": "[2]; 0.1 mM", "result": "modest"},
      {"measurement": "SER", "setting": "[2]; 0.10 mM, ± SD", "result": "1.1 ± 0.06"},
      {"measurement": "SER", "setting": "[2]; 0.50 mM, ± SD", "result": "2.1 ± 0.40"},
      {"measurement": "SER", "setting": "[2]; 1.00 mM", "result": 2.4},
      {"measurement": "effectiveness in eliminating radiation resistance due to hypoxia", "setting": "[2]; 2.0 mM", "result": "just as effective as oxygen in eliminating radiation resistance due to hypoxia"},
      {"measurement": "SER", "setting": "[2]; 2.00 mM, ± SD", "result": "2.9±0.4"},
      {"measurement": "extent of radiosensitization", "setting": "[2]; 0.5 and 1.0 mM", "result": "significant enhancement was observed"},
      {"measurement": "protection from whole body irradiation", "setting": "[3]; 80 mg/kg i.p. before irradiation", "result": "protected mice from whole-body irradiation"},
      {"measurement": "Percent survival of mice at 30 days", "setting": "[3]; 80 mg/kg i.p. 10 min before", "result": 44, "unit": "%"},
      {"measurement": "Percent survival of mice at 30 days", "setting": "[3]; 80 mg/kg i.p. 30 min before", "result": 60, "unit": "%"}
    ]}
  ]
}
